According to patent publication US20100029636A1, “Lck inhibitors” (priority 2006, published 2010):

Tested on: blood IL-2 levels induced by SEB
Experiment: In vivo model: mouse SEB/IL-2
Set-up: species or system BALB/c mice
Conditions: 100 mg/kg po, serum IL-2 two hours after SEB
Protocol: The compound to be tested is administered to BALB/c mice followed e.g. 1 h later, by an intravenous administration of 3 µg per mouse of SEB to induce a rise in blood IL-2 levels. Two hours after the administration of SEB, mice are bled, and levels of IL-2 are measured in the serum using standard methods. Under control conditions (vehicle only) IL-2 concentrations measured are mostly in the range of 2000 to 8000 pg/ml.

| Structure (SMILES) | inhibits the secretion of IL-2 |
| --- | --- |
| CC(C)COC(=O)Nc1ccc(-c2cnc3c(-c4ccc(N5CCN(C)CC5)cc4)cnn3c2N)cc1 [Example 10, (4-{7-Amino-3-[4-(4-methyl-piperazin-1-yl)-phenyl]-pyrazolo[1,5-a]pyrimidin-6-yl}-phenyl)-carbamic acid isobutyl ester] | 59% |

Target: Lck (Homo sapiens, UniProt P06239)
Sequence (P06239 whole entry, species assumed): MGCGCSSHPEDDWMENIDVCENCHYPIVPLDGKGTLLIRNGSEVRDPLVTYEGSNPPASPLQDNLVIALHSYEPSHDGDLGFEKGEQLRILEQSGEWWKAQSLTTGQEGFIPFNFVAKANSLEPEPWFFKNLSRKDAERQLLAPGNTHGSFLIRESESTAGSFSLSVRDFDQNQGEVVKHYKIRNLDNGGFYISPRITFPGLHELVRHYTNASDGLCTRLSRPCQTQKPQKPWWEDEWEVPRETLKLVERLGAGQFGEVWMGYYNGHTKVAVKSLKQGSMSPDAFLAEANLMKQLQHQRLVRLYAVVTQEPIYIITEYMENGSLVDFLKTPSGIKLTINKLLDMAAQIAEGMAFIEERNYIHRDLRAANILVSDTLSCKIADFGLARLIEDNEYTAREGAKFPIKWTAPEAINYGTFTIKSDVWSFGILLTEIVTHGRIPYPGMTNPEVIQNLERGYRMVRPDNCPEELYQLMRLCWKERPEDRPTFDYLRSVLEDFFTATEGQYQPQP
Experiment: Biochemical Lck kinase assay (TR-FRET, LANCE)
Conditions: not given

| Structure (SMILES) | IC50 |
| --- | --- |
| CC(C)COC(=O)Nc1ccc(-c2cnc3c(-c4ccc(N5CCN(C)CC5)cc4)cnn3c2N)cc1 [Example 10, (4-{7-Amino-3-[4-(4-methyl-piperazin-1-yl)-phenyl]-pyrazolo[1,5-a]pyrimidin-6-yl}-phenyl)-carbamic acid isobutyl ester] | 10 nM |
| Cc1cccc(OC(=O)Nc2ccc(-c3cnc4c(-c5cccc(N6CCN(C)CC6)c5)cnn4c3N)cc2)c1C [Example 65] | 25 nM |
| CCc1ccc(OC(=O)Nc2ccc(-c3cnc4c(-c5cccc(N6CCN(C)CC6)c5)cnn4c3N)cc2)cc1 [Example 77] | 25 nM |
| Cc1ccc(NC(=O)Nc2ccc(-c3cnc4c(-c5cccc(N6CCN(C)CC6)c5)cnn4c3N)cc2)cc1 [Example 126] | 15 nM |
| Cc1ccc([C@H](C)NC(=O)Nc2ccc(-c3cnc4c(-c5cccc(N6CCN(C)CC6)c5)cnn4c3N)cc2)cc1 [Example 172] | 34 nM |
